Reference: a melting point compilation (Tetko et al.; mined from patent text by program, amines drawn as free bases though some values may be those of a salt)

SMILES | melting point
Nc1ccc(CC(=O)N2CCCC2)cc1N | 105 to 108 °C
COC(=O)c1cc(OC)c(OCc2ccccc2)cc1[N+](=O)[O-] | 104 to 105 °C
CC1(C)CC(=O)CCc2ccc(Br)cc21 | 67 to 68 °C
CCCCCCCCCCc1cnc(-c2ccc3c(c2)C(=O)C(CCCCCCCC)C3)nc1 (centres undefined) | 83 °C
COc1cc(C#Cc2cnc(N)nc2N)cc(OC)c1OC | 202 to 204 °C
CC1(C)C(C=C(F)C(=O)OCC(F)(F)F)C1C(=O)OC(C#N)c1ccc(F)c(Oc2ccccc2)c1 (centres undefined) | 85 °C
CN1C(=O)N(c2ccccc2F)C(=O)C1=CC1CCCCC1 | 131 to 137 °C
NCc1ccc2c(c1)ncn2-c1cccc(-c2ccc(F)nc2)c1 | 141 to 143 °C
COc1ccc(C(=O)Cc2ccncc2)cc1OC1CCCC1 | 102 to 103 °C
CC1(c2ccc3cc(C(O)c4cccnc4)ccc3c2)OCCO1 (centres undefined) | 154 to 156 °C
O=C(NCc1ccccc1OC(F)(F)F)[C@@H]1CCCN(c2cccc3c2C(=O)N(Cc2ccncc2)C3=O)C1 | 197 to 198 °C
NC(=O)N1C(=O)C(C(=O)c2ccoc2)c2ncc(Cl)cc21 (centres undefined) | > 250 °C
C=CCNc1nc(NC(=O)N2CCCC2)c2scc(C)c2n1 | 98 to 101 °C
Cc1c(C(=O)c2cnn(C(C)(C)C)c2O)ccc(S(C)(=O)=O)c1C1=NOC2CC12 (centres undefined) | 69 to 74 °C
COc1ccccc1Oc1c(NS(=O)(=O)c2ccc(C(C)(C)C)cc2)nc(SC)nc1OCCO | 139 to 140 °C
CC(C)(CCn1cncn1)NCC(O)c1ccc(O)c(CO)c1 (centres undefined) | 177 to 180 °C
COP(=S)(OC)Oc1nc(OCc2ccccc2)sc1C#N | 47 °C
CN(CCCCc1ccccc1)CCCc1ccccc1 | 81 to 83 °C
CC=Cc1cccc2c(=O)c(C)c(C(=O)O)oc12 | 224 to 228 °C
CC(C)(C)OC(=O)Nc1ccc2nc(-c3cccnc3)nn2c1 | 296 °C
FC(F)(F)C1(c2cc(Cl)cc(Cl)c2)CC(c2cnc(Cl)c(Cl)c2)=NO1 (centres undefined) | 155 to 157 °C
Cn1cnc2nc(-c3ccc(Br)cc3)nn2c1=S | > 300 °C
O=[N+]([O-])c1cccnc1Nc1cc(F)ccc1F | 150 to 152 °C
C=CCN(CC=C)Cc1nc(-c2ncn3c2CN(C)C(=O)c2c(Cl)cccc2-3)no1 | 126 to 130 °C
CC(C)NCCCCCCOc1ccc(O)cc1 | 78 to 86 °C

SMILES | melting point
N#Cc1cccc(CN2CCc3ccccc32)c1 | 54.5 to 56 °C
CC(Br)c1nc2ccccc2c(=O)n1-c1ccc(F)cc1 (centres undefined) | 180 °C
C=CCNc1ccc(N)cc1[N+](=O)[O-] | 80 to 83 °C
SC1=NCCN1Cc1ccccc1 | 177 to 182 °C
Cn1nc(COc2cccc3c2CN(C2CCC(=O)NC2=O)C3=O)cc1CN1CCOCC1 (centres undefined) | 125 to 127 °C
Cn1nc(S(C)(=O)=O)c(=O)c2ccc(Cl)cc21 | 270 to 272 °C
CN(CC(N)=O)c1nccc(-c2ccc(C(=O)NCCc3ccc4[nH]cc(C(=N)N)c4c3)cc2)n1 | 96 to 98 °C
COC(=O)CC(S)C(CC(C)C)C(=O)NC(Cc1ccccc1)C(N)=O (centres undefined) | 64 to 66 °C
CCCN(Cc1ccc(-c2ccccc2C2=NC(C)(C)CO2)cc1)C(c1ccccc1)(c1ccccc1)c1ccccc1 | 151 to 153 °C
N=C(Nc1ccc2ccncc2c1)c1cccs1 | 178 °C
COc1cc(CCCCCCCCCCCO)ccc1O | 72 to 74 °C
CN1CCC(OC(c2cccc(N)c2)c2nc3ccccc3[nH]2)CC1 (centres undefined) | 100 °C
CCOC(=O)Nc1ccc(OC)nc1 | 76 °C
COC(=O)c1cc2cc(-c3ccc(C)cc3)ccc2nc1C | 84 to 87 °C
COc1ccc(OCC(O)CN2CCN(C(N)=O)CC2)cc1 (centres undefined) | 192 to 195 °C
NCC1Cc2cc(C(F)(F)F)cc(-c3ccsc3)c2O1 (centres undefined) | > 250 °C
Cc1cc(C)c(-c2c(O)sc(-c3ccccc3)nc2=O)c(C)c1 | 240 to 242 °C
CN1C2CCC(N3C(=O)c4ccccc4C3=O)C1CC2 (centres undefined) | 145 to 147 °C
CC(CO)N1C(=O)N(c2ccc(Cl)cc2)CC1C (centres undefined) | 108 to 110 °C
CC(=O)N(C)c1cccc(S(=O)(=O)c2ccc([N+](=O)[O-])cc2)c1 | 194 to 195 °C
C=CCOc1ccc(OCc2ccccc2)cc1 | 56 to 57 °C
Cc1ccc(COC(=O)C(=O)OCc2ccc(C)cc2)cc1 | 100 °C
CN(C)C(=O)Cc1cc(Br)ccc1I | 127 to 129 °C
O=C1CCC(N2Cc3c(OCc4cc(CN5CCOCC5)on4)cccc3C2=O)C(=O)N1 (centres undefined) | 218 to 220 °C
CCOc1ncc(C(=O)O)c2ccccc12 | 222 °C

The next lines start with the values.

melting point | SMILES
111 to 114 °C | Fc1ccc(C(c2ccc(OCc3ccccc3)cc2)C(c2ccccc2)C(F)(F)F)cc1 (centres undefined)
108 °C | Clc1cccc(C(c2ccc3[nH]cnc3c2)n2ccnc2)c1 (centres undefined)
95 to 96 °C | COc1cc(CCCO)ccc1OCc1coc(/C=C/c2ccccc2)n1
128 to 130 °C | CC[C@H](C1CC1)n1cc(Cl)nc(N2CCc3cc(OC)c(F)c(Cl)c32)c1=O
187 to 188 °C | O=C(O)c1ccc(F)cc1NC(=O)c1ccccc1C(=O)O
234 to 236 °C | C[C@]12CC[C@H](O)CC1=CCC1C2CC[C@@]2(C)C1CC[C@H]2n1cc(-c2ccccc2)nn1 (some centres undefined)
201 to 203 °C | COc1ccc2[nH]c(COC(C)=O)c(C=O)c2c1[N+](=O)[O-]
168 to 170 °C | CN1CCN(c2ccc(F)cc2C=C2CCCN(c3ccc(F)c(F)c3)C2=O)CC1
70 to 72 °C | CCOC(=O)C1CCn2c(cc3ccccc32)C1 (centres undefined)
75 to 76 °C | CCCCCCCCCCCCCCCC(=O)NC(C)CO (centres undefined)
246 to 249 °C | Cn1nnc(-c2ccc(C=Cc3ccc(-c4nc5ccccc5o4)cc3)cc2)c1-c1nc2ccccc2o1
177 to 180 °C | FC(F)(F)c1ccc2c(c1)ncn2-c1cccc(-n2ccnc2)c1
167 to 168 °C | COc1nc2cc([N+](=O)[O-])cc(C)c2nc1OC
235 to 240 °C | CSc1ccc2ccc3c(SC)cc(SC)c4ccc1c2c34
193 to 194 °C | COc1ccc(NC(=S)NC(NC(=O)c2ccc(C)cc2)C(F)(F)F)cc1 (centres undefined)
135 °C | O=Cc1cc([N+](=O)[O-])c(CCl)cc1O
165 to 166 °C | CCOP(=O)(/C=C/c1cn(-c2ccccc2)nc1OCc1ccc(OCc2nc(-c3ccc(C(=O)O)s3)oc2C)c(OC)c1)OCC
99 to 100 °C | CCn1c(N(C)C)nc2cc(C(F)(F)F)c(Cl)c(N)c21
115 to 117 °C | [N-]=[N+]=Nc1nc(-c2ccccc2)nc(-c2ccccc2)n1
210 to 214 °C | Nc1nc2ccc(C(O)C(COc3ccccc3)N3CCC(Cc4ccccc4)CC3)cc2s1 (centres undefined)
127 °C | CC1(C)CCC(C)(C)c2cc3c(cc21)OCC3(C)c1cc(CO)cs1 (centres undefined)
166 to 167 °C | CN(C)CCCC1(O)c2ccccc2COc2ccc(C3=NC(C)(C)CO3)cc21 (centres undefined)
194 to 196 °C | COC(=O)c1nc(-c2ccc(Cl)cc2F)nc(N)c1Cl
200 to 202 °C | O=C(O)CCNC(=O)c1ccccc1NC(=O)c1ccccc1O
